Results from PubChem BioAssay AID1918940 (Molecular Pharmacology Branch, DTP, NCI, 2023).

Tested on: NCI-H211 complex spheroid viability
Assay: Anticancer human tumor NCI-H211 cell line growth inhibition [LSD1];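 also: luminescent viability read after seven days of drug exposure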;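 as to viability, T/C: 100% = DMSO vehicle control viability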
Settings: for IC50: curve of first compound; for viability, T/C: stronger effect = lower value
Summary of the method: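 Drug combinations with the LSD1 inhibitor iadademstat tested on tumor cells co-cultured as spheroids with endothelial cells and mesenchymal stem cells. Concentrations descended in half-log increments from clinical Cmax or 10 microM.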

[1] = second compound 0.1 µM, first compound 0.00949 µM
[2] = second compound 0.1 µM, first compound 0.03 µM
[3] = second compound 0.1 µM, first compound 0.0949 µM
[4] = second compound 0.1 µM, first compound 0.3 µM
[5] = second compound 0.1 µM, first compound 0.949 µM
[6] = second compound 0.1 µM, first compound 3 µM
[7] = second compound 0.316 µM, first compound 0.00949 µM
[8] = second compound 0.316 µM, first compound 0.03 µM
[9] = second compound 0.316 µM, first compound 0.0949 µM
[10] = second compound 0.316 µM, first compound 0.3 µM
[11] = second compound 0.316 µM, first compound 0.949 µM
[12] = second compound 0.316 µM, first compound 3 µM
[13] = second compound 1 µM, first compound 0.00949 µM
[14] = second compound 1 µM, first compound 0.03 µM
[15] = second compound 1 µM, first compound 0.0949 µM
[16] = second compound 1 µM, first compound 0.3 µM
[17] = second compound 1 µM, first compound 0.949 µM
[18] = second compound 1 µM, first compound 3 µM
[19] = second compound 3.16 µM, first compound 0.00949 µM
[20] = second compound 3.16 µM, first compound 0.03 µM
[21] = second compound 3.16 µM, first compound 0.0949 µM
[22] = second compound 3.16 µM, first compound 0.3 µM
[23] = second compound 3.16 µM, first compound 0.949 µM
[24] = second compound 3.16 µM, first compound 3 µM
[25] = second compound 10 µM, first compound 0.00949 µM
[26] = second compound 10 µM, first compound 0.03 µM
[27] = second compound 10 µM, first compound 0.0949 µM
[28] = second compound 10 µM, first compound 0.3 µM
[29] = second compound 10 µM, first compound 0.949 µM
[30] = second compound 10 µM, first compound 3 µM

Structure (SMILES)	IC50 (second compound 0.1 µM) [nM]	IC50 (second compound 0.316 µM) [nM]	IC50 (second compound 1 µM) [nM]	IC50 (second compound 3.16 µM) [nM]	IC50 (second compound 10 µM) [nM]	viability, T/C [1] [%]	viability, T/C [2] [%]	viability, T/C [3] [%]	viability, T/C [4] [%]	viability, T/C [5] [%]	viability, T/C [6] [%]	viability, T/C [7] [%]	viability, T/C [8] [%]	viability, T/C [9] [%]	viability, T/C [10] [%]	viability, T/C [11] [%]	viability, T/C [12] [%]	viability, T/C [13] [%]	viability, T/C [14] [%]	viability, T/C [15] [%]	also measured
NS(=O)(=O)OCC1CC(n2ccc3c(NC4CCc5ccccc54)ncnc32)CC1O (stereo not given) + NC1CC1c1ccc(-c2cccc(O)c2)cc1	< 9.49	< 9.49	< 9.49	< 9.49	< 9.49	21.2	9.36	4.3	1.71	1.1	0.94	20.3	13.6	2.93	1.2	1.09	0.81	20.4	10.4	3.57	viability, T/C [16]: 1.64%; viability, T/C [17]: 1.11%; viability, T/C [18]: 0.79%; viability, T/C [19]: 26.8%; viability, T/C [20]: 13.2%; viability, T/C [21]: 5.17%; viability, T/C [22]: 2.04%; viability, T/C [23]: 0.97%; viability, T/C [24]: 0.81%; viability, T/C [25]: 27.4%; viability, T/C [26]: 12%; viability, T/C [27]: 5.24%; viability, T/C [28]: 1.75%; viability, T/C [29]: 0.61%; viability, T/C [30]: 0.57%
Nc1ccccc1NC(=O)c1ccc(CNC(=O)OCc2cccnc2)cc1 + NC1CC1c1ccc(-c2cccc(O)c2)cc1	12.2	< 9.49	< 9.49	< 9.49	12	56.5	26.4	4.02	1.9	1.18	0.14	46.8	18.2	4.2	2.36	1.27	0.1	45.8	25.1	3.68	viability, T/C [16]: 2.02%; viability, T/C [17]: 1.28%; viability, T/C [18]: 0.1%; viability, T/C [19]: 43.4%; viability, T/C [20]: 24.5%; viability, T/C [21]: 4.34%; viability, T/C [22]: 3.1%; viability, T/C [23]: 1.14%; viability, T/C [24]: 0.14%; viability, T/C [25]: 53.6%; viability, T/C [26]: 36.1%; viability, T/C [27]: 5.02%; viability, T/C [28]: 2.76%; viability, T/C [29]: 0.95%; viability, T/C [30]: 0.16%
O=C(C=Cc1cccc(S(=O)(=O)Nc2ccccc2)c1)NO + NC1CC1c1ccc(-c2cccc(O)c2)cc1	< 9.49	< 9.49	< 9.49	< 9.49	< 9.49	14.7	8.14	7.87	3.8	0.63	0.14	13.9	7.23	7.38	4.67	0.66	0.16	13.9	8.11	9.23	viability, T/C [16]: 4.38%; viability, T/C [17]: 0.39%; viability, T/C [18]: 0.17%; viability, T/C [19]: 15.4%; viability, T/C [20]: 7.28%; viability, T/C [21]: 7.21%; viability, T/C [22]: 4.21%; viability, T/C [23]: 0.29%; viability, T/C [24]: 0.16%; viability, T/C [25]: 13.5%; viability, T/C [26]: 6.43%; viability, T/C [27]: 7.11%; viability, T/C [28]: 3.82%; viability, T/C [29]: 0.24%; viability, T/C [30]: 0.27%
